Assays:
SARS-CoV-2 PLpro [1] = target: T1, SARS-CoV-2 PLpro (Severe acute respiratory syndrome coronavirus 2, UniProt P0DTD1); assay: biochemical
SARS-CoV-2 PLpro [2] = target: T1, SARS-CoV-2 PLpro; assay: biochemical; remark: listed apart in the source

SMILES: Cc1ncc(CSSCc2cnc(C)c(O)c2CO)c(CO)c1O [Pyritinol]
- EC50 (SARS-CoV-2 PLpro [1]): 18 µM

SMILES: CN(C)CCSSCCN(C)C [DMGA, bis[2-(N,N-dimethylamino)ethyl] disulfide]
- IC50 (SARS-CoV-2 PLpro [2]): 9.4 µM

SMILES: O=S(=O)(O)CCSSCCS(=O)(=O)O [Dimesna]
- EC50 (SARS-CoV-2 PLpro [1]): 1050 µM

Reference: article doi:10.1101/2022.03.30.486313v1 (biorxiv, 2022)
